Nine molecules from article PMC7687128, “Extracellular loops matter – subcellular location and function of the lysine transporter Lyp1 from Saccharomyces cerevisiae” (The Febs Journal, 2020) can be followed below.

Data set [1] has as its target T1, Lyp1 (Lyp1-YPet) (Saccharomyces cerevisiae, UniProt P32487, G289A/W291A).
T1 construct: full-length, YPet fluorescent protein fusion, plasmid-expressed in S. cerevisiae, assayed in whole cells
T1 sequence (P32487 1-611 G289A/W291A): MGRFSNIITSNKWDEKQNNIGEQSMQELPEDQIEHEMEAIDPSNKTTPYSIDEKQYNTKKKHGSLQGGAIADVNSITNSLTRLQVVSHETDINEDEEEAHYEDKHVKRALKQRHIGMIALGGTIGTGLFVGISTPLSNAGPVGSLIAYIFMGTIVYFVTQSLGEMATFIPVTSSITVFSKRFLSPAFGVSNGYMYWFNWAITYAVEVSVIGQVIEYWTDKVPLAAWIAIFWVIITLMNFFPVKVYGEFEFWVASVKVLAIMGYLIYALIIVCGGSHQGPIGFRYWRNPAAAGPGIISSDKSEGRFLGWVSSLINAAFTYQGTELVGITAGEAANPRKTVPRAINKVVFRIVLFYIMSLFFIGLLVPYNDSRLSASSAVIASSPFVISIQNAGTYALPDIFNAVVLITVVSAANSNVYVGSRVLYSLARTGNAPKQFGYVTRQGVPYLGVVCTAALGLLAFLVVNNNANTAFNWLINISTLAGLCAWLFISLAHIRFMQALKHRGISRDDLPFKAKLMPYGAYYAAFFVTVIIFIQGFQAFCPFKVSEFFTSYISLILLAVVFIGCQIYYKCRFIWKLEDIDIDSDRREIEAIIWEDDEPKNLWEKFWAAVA
Description: initial rate of […]-lysine uptake in S. cerevisiae cells. It is filed as cell-based. As to conditions: out-to-in transport; 100 mM potassium phosphate, 10 mM glucose, pH 6.0, 30 °C; labelled compound.

The target of data set [2] is T2, Lyp1 (Lyp1-YPet) (Saccharomyces cerevisiae, UniProt P32487, I280A/G281A/F282A).
T2 construct: full-length, YPet fluorescent protein fusion, plasmid-expressed in S. cerevisiae, assayed in whole cells
T2 sequence (P32487 1-611 I280A/G281A/F282A): T1 sequence (P32487 1-611 G289A/W291A) with I280A, G281A, F282A, A289G, A291W
Described as above. It is filed as cell-based. The following applies: out-to-in transport; 100 mM potassium phosphate, 10 mM glucose, pH 6.0, 30 °C; labelled compound.

Data set [3] addresses T3, Lyp1 (Lyp1-YPet) (Saccharomyces cerevisiae, UniProt P32487).
T3 construct: full-length, YPet fluorescent protein fusion, plasmid-expressed in S. cerevisiae, assayed in whole cells
T3 sequence (P32487 1-611): T1 sequence (P32487 1-611 G289A/W291A) with A289G, A291W
The data set is described as follows: competition with […]-lysine uptake in S. cerevisiae cells. It is filed as cell-based. The following applies: 20 µM [14C]-lysine, 100 mM potassium phosphate, 10 mM glucose, pH 6.0, 30 °C; competitor.

Substrate in data set [4]: NCCCC[C@H](N)C(=O)O
Description: cells, lysate or membranes. It is filed as cell-based, Saccharomyces cerevisiae. The following applies: out-to-in transport, 100 mM potassium phosphate, 10 mM glucose, pH 6.0, 30 °C, labelled compound.

Positions count from the first letter of the chain named. In names and notes the source's numbering stands. Some results are limits rather than exact numbers.

As to `NCCCC[C@H](N)C(=O)O` [L-lysine], the Km in data set [1] and in data set [2] was above 100 µM each time.

For `C[C@H](N)C(=O)O` [alanine], in data set [3], the “% reduction of lysine transport at 100 mM” value (“% reduction” below) is on record as above 80%.

For `N=C(N)NCCC[C@H](N)C(=O)O` [arginine], the “% reduction” value in data set [3] is given as above 80%.

As to `N[C@@H](Cc1cnc[nH]1)C(=O)O` [histidine], in data set [3], the “% reduction” value was above 80%.

B1: Lyp1 (Lyp1-YPet) (Saccharomyces cerevisiae S288C) (protein)
chain: T1 sequence (P32487 1-611 G289A/W291A) with A289G, A291W
notes: full-length, YPet fluorescent protein fusion, plasmid-expressed in S. cerevisiae, assayed in whole cells
For the molecule B1, the Km in data set [4] is reported as 10 µM.

B2: Lyp1 (Lyp1-YPet) (Saccharomyces cerevisiae S288C; E215A/W217A/Y216A) (protein)
chain: T1 sequence (P32487 1-611 G289A/W291A) with E215A, Y216A, W217A, A289G, A291W
notes: as for B1
On to B2, for which, in data set [4], the Km stood at 34 ± 17 µM.

B3: Lyp1 (Lyp1-YPet) (Saccharomyces cerevisiae S288C; F471A/T469A) (protein)
chain: T1 sequence (P32487 1-611 G289A/W291A) with A289G, A291W, T469A, F471A
notes: as for B1
As to B3, the Michaelis constant (Km) in data set [4] is given as 25 ± 21 µM.

B4: Lyp1 (Lyp1-YPet) (Saccharomyces cerevisiae S288C; N390A/Q389A) (protein)
chain: T1 sequence (P32487 1-611 G289A/W291A) with A289G, A291W, Q389A, N390A
notes: as for B1
Regarding B4, the Michaelis-Menten constant (Km) in data set [4] was determined as 7.4 ± 1.0 µM.

B5: Lyp1 (Lyp1-YPet) (Saccharomyces cerevisiae S288C; G292A/G294A/P293A) (protein)
chain: T1 sequence (P32487 1-611 G289A/W291A) with A289G, A291W, G292A, P293A, G294A
notes: as for B1
In the case of B5, the Michaelis-Menten constant (Km) in data set [4] is recorded as 63 ± 83 µM.

Usually Km stands for the concentration of substrate that gives half-maximal velocity.
